Results from the supplement of paper PMC4862054.

test system: HCC1937; test: drug sensitivity score (DSS), CellTiter-Glo (DSS (AUC-based score)); higher = stronger drug effect (viability inhibition or cytotoxicity); extreme values may be limits of the assay; details: incubation time: 72 h
Outline: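 Using 20 µl of cell suspension per well, breast cancer cell lines were seeded into 384-well plates pre-loaded with compound at 5 concentrations in 10-fold steps across a compound-specific 10,000-fold range. Incubation lasted 72 h, after which CellTox Green fluorescence at 485/520 nm and then CellTiter-Glo luminescence, following 10 min at room temperature, were recorded. Each plate was normalised to 0.1 % DMSO and a positive kill control before the drug sensitivity score was derived from the area under the fitted dose-response curve.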

Compound | drug sensitivity score
CN[C@@H]1C[C@H]2O[C@@](C)([C@@H]1OC)n1c3ccccc3c3c4c(c5c6ccccc6n2c5c31)C(=O)N[C@H]4O [UCN-01] | 18.8
C[C@@H](Oc1cc(-c2cnn(C3CCNCC3)c2)cnc1N)c1c(Cl)ccc(F)c1Cl [Crizotinib] | 0
CC1(C)NC(=O)N(c2ccc([N+](=O)[O-])c(C(F)(F)F)c2)C1=O [Nilutamide] | 0
CCCCCCCCCCCCCCCCCCOP(=O)([O-])OC1CC[N+](C)(C)CC1 [Perifosine] | 0.853
O=C(CCCCCCC(=O)Nc1ccc([C@H]2O[C@@H](CSc3nc(-c4ccccc4)c(-c4ccccc4)o3)C[C@@H](c3ccc(CO)cc3)O2)cc1)NO [Tubacin] | 3.76
O=C(O)c1ccc(-c2c[nH]c3ncc(-c4ccccc4)cc23)cc1C1CCCC1 | 0
N#CCNC(=O)c1ccc(-c2ccnc(Nc3ccc(N4CCOCC4)cc3)n2)cc1 [Momelotinib] | 0
COc1cc2ncnc(Nc3ccc(F)c(Cl)c3)c2cc1NC(=O)/C=C/CN1CCCCC1 [Dacomitinib] | 0
CS(=O)(=O)c1ccc(C2=C(c3ccccc3)C(=O)OC2)cc1 [Rofecoxib] | 0

test system: BT-549; test: normalised viability (% of control), CellTiter-Blue; higher = more viable cells (about 100 = DMSO control); details: 10 nM; incubation time: 72 h
Outline: (§1)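 The reported quantity is normalised viability at a single listed concentration of the series. Compound in 5 µl medium was pre-dispensed into 384-well plates and 20 µl of breast cancer cell suspension was added for 72 h. A 2 h, 37 °C CellTiter-Blue step (2.5 µl) preceded fluorescence reading at 560/590 nm, and plates were normalised to vehicle (100) and a positive kill control (0).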

Compound | normalised viability
CC(=O)Nc1ccc(C(=O)Nc2ccccc2N)cc1 [CI-994] | 96.9%
Cc1ccc(C(=O)Nc2ccc(CN3CCN(C)CC3)c(C(F)(F)F)c2)cc1C#Cc1cnc2cccnn12 [Ponatinib] | 107%
CCN(CCCOc1ccc2c(Nc3cc(CC(=O)Nc4cccc(F)c4)[nH]n3)ncnc2c1)CCOP(=O)(O)O [Barasertib] | 96.8%
NC(=O)Nc1cc(-c2cccc(F)c2)sc1C(=O)N[C@H]1CCCNC1 [AZD 7762] | 120%

same assay, conditions: 100 nM; incubation time: 72 h

Compound | normalised viability
Oc1nc(-c2ccc(C(F)(F)F)cc2)nc2c1CSCC2 [XAV-939] | 104%
N.N.[Cl][Pt][Cl] [Cisplatin] | 105%
CN[C@@H]1C[C@H]2O[C@@](C)([C@@H]1OC)n1c3ccccc3c3c4c(c5c6ccccc6n2c5c31)C(=O)N[C@H]4O [UCN-01] | 52.3%
C[C@@H](Oc1cc(-c2cnn(C3CCNCC3)c2)cnc1N)c1c(Cl)ccc(F)c1Cl [Crizotinib] | 95.2%
CC1(C)NC(=O)N(c2ccc([N+](=O)[O-])c(C(F)(F)F)c2)C1=O [Nilutamide] | 99.6%
NCC(=O)CCC(=O)O [Aminolevulinic acid] | 104%

test system: MDA-MB-436; test: as above; details: 10 nM; incubation time: 72 h
Outline: as §1

Compound | normalised viability
CC(=O)Nc1ccc(C(=O)Nc2ccccc2N)cc1 [CI-994] | 94.2%
Cc1ccc(C(=O)Nc2ccc(CN3CCN(C)CC3)c(C(F)(F)F)c2)cc1C#Cc1cnc2cccnn12 [Ponatinib] | 101%
CCN(CCCOc1ccc2c(Nc3cc(CC(=O)Nc4cccc(F)c4)[nH]n3)ncnc2c1)CCOP(=O)(O)O [Barasertib] | 113%
NC(=O)Nc1cc(-c2cccc(F)c2)sc1C(=O)N[C@H]1CCCNC1 [AZD 7762] | 96.1%

same assay, conditions: 100 nM; incubation time: 72 h

Compound | normalised viability
Oc1nc(-c2ccc(C(F)(F)F)cc2)nc2c1CSCC2 [XAV-939] | 128%
N.N.[Cl][Pt][Cl] [Cisplatin] | 89.8%
CN[C@@H]1C[C@H]2O[C@@](C)([C@@H]1OC)n1c3ccccc3c3c4c(c5c6ccccc6n2c5c31)C(=O)N[C@H]4O [UCN-01] | 75.1%
C[C@@H](Oc1cc(-c2cnn(C3CCNCC3)c2)cnc1N)c1c(Cl)ccc(F)c1Cl [Crizotinib] | 84.8%
CC1(C)NC(=O)N(c2ccc([N+](=O)[O-])c(C(F)(F)F)c2)C1=O [Nilutamide] | 96.6%
NCC(=O)CCC(=O)O [Aminolevulinic acid] | 104%

test system: CAL-85-1; test: as above; details: 1 nM; incubation time: 72 h
Outline: as §1

Compound | normalised viability
CC(=O)Nc1ccc(C(=O)Nc2ccccc2N)cc1 [CI-994] | 91.7%
Cc1ccc(C(=O)Nc2ccc(CN3CCN(C)CC3)c(C(F)(F)F)c2)cc1C#Cc1cnc2cccnn12 [Ponatinib] | 95.9%
CCN(CCCOc1ccc2c(Nc3cc(CC(=O)Nc4cccc(F)c4)[nH]n3)ncnc2c1)CCOP(=O)(O)O [Barasertib] | 95.5%
NC(=O)Nc1cc(-c2cccc(F)c2)sc1C(=O)N[C@H]1CCCNC1 [AZD 7762] | 99.8%

same assay, conditions: 10 nM; incubation time: 72 h

Compound | normalised viability
Oc1nc(-c2ccc(C(F)(F)F)cc2)nc2c1CSCC2 [XAV-939] | 96.3%
N.N.[Cl][Pt][Cl] [Cisplatin] | 104%
CN[C@@H]1C[C@H]2O[C@@](C)([C@@H]1OC)n1c3ccccc3c3c4c(c5c6ccccc6n2c5c31)C(=O)N[C@H]4O [UCN-01] | 86.9%
C[C@@H](Oc1cc(-c2cnn(C3CCNCC3)c2)cnc1N)c1c(Cl)ccc(F)c1Cl [Crizotinib] | 93.8%
CC1(C)NC(=O)N(c2ccc([N+](=O)[O-])c(C(F)(F)F)c2)C1=O [Nilutamide] | 105%
NCC(=O)CCC(=O)O [Aminolevulinic acid] | 98.4%

test system: MDA-MB-453; test: as above; details: 1 nM; incubation time: 72 h
Outline: as §1

Compound | normalised viability
CC(=O)Nc1ccc(C(=O)Nc2ccccc2N)cc1 [CI-994] | 113%
Cc1ccc(C(=O)Nc2ccc(CN3CCN(C)CC3)c(C(F)(F)F)c2)cc1C#Cc1cnc2cccnn12 [Ponatinib] | 110%
CCN(CCCOc1ccc2c(Nc3cc(CC(=O)Nc4cccc(F)c4)[nH]n3)ncnc2c1)CCOP(=O)(O)O [Barasertib] | 108%
NC(=O)Nc1cc(-c2cccc(F)c2)sc1C(=O)N[C@H]1CCCNC1 [AZD 7762] | 104%

same assay, conditions: 10 nM; incubation time: 72 h

Compound | normalised viability
Oc1nc(-c2ccc(C(F)(F)F)cc2)nc2c1CSCC2 [XAV-939] | 101%
N.N.[Cl][Pt][Cl] [Cisplatin] | 111%
CN[C@@H]1C[C@H]2O[C@@](C)([C@@H]1OC)n1c3ccccc3c3c4c(c5c6ccccc6n2c5c31)C(=O)N[C@H]4O [UCN-01] | 106%
C[C@@H](Oc1cc(-c2cnn(C3CCNCC3)c2)cnc1N)c1c(Cl)ccc(F)c1Cl [Crizotinib] | 94.2%
CC1(C)NC(=O)N(c2ccc([N+](=O)[O-])c(C(F)(F)F)c2)C1=O [Nilutamide] | 112%
NCC(=O)CCC(=O)O [Aminolevulinic acid] | 99.1%

test system: MFM-223; test: as above; details: 10 nM; incubation time: 72 h
Outline: as §1

Compound | normalised viability
CC(=O)Nc1ccc(C(=O)Nc2ccccc2N)cc1 [CI-994] | 97.5%
Cc1ccc(C(=O)Nc2ccc(CN3CCN(C)CC3)c(C(F)(F)F)c2)cc1C#Cc1cnc2cccnn12 [Ponatinib] | 65.5%
CCN(CCCOc1ccc2c(Nc3cc(CC(=O)Nc4cccc(F)c4)[nH]n3)ncnc2c1)CCOP(=O)(O)O [Barasertib] | 93.4%
NC(=O)Nc1cc(-c2cccc(F)c2)sc1C(=O)N[C@H]1CCCNC1 [AZD 7762] | 96.2%

same assay, conditions: 100 nM; incubation time: 72 h

Compound | normalised viability
Oc1nc(-c2ccc(C(F)(F)F)cc2)nc2c1CSCC2 [XAV-939] | 96.5%
N.N.[Cl][Pt][Cl] [Cisplatin] | 93.7%
CN[C@@H]1C[C@H]2O[C@@](C)([C@@H]1OC)n1c3ccccc3c3c4c(c5c6ccccc6n2c5c31)C(=O)N[C@H]4O [UCN-01] | 66.9%
C[C@@H](Oc1cc(-c2cnn(C3CCNCC3)c2)cnc1N)c1c(Cl)ccc(F)c1Cl [Crizotinib] | 83.4%
CC1(C)NC(=O)N(c2ccc([N+](=O)[O-])c(C(F)(F)F)c2)C1=O [Nilutamide] | 92.4%
NCC(=O)CCC(=O)O [Aminolevulinic acid] | 91.7%

test system: MDA-MB-468; test: as above; details: 10 nM; incubation time: 72 h
Outline: as §1

Compound | normalised viability
CC(=O)Nc1ccc(C(=O)Nc2ccccc2N)cc1 [CI-994] | 108%
Cc1ccc(C(=O)Nc2ccc(CN3CCN(C)CC3)c(C(F)(F)F)c2)cc1C#Cc1cnc2cccnn12 [Ponatinib] | 110%
CCN(CCCOc1ccc2c(Nc3cc(CC(=O)Nc4cccc(F)c4)[nH]n3)ncnc2c1)CCOP(=O)(O)O [Barasertib] | 99.4%
NC(=O)Nc1cc(-c2cccc(F)c2)sc1C(=O)N[C@H]1CCCNC1 [AZD 7762] | 107%

same assay, conditions: 100 nM; incubation time: 72 h

Compound | normalised viability
Oc1nc(-c2ccc(C(F)(F)F)cc2)nc2c1CSCC2 [XAV-939] | 107%
N.N.[Cl][Pt][Cl] [Cisplatin] | 99.1%
CN[C@@H]1C[C@H]2O[C@@](C)([C@@H]1OC)n1c3ccccc3c3c4c(c5c6ccccc6n2c5c31)C(=O)N[C@H]4O [UCN-01] | 56.2%
C[C@@H](Oc1cc(-c2cnn(C3CCNCC3)c2)cnc1N)c1c(Cl)ccc(F)c1Cl [Crizotinib] | 97.7%
CC1(C)NC(=O)N(c2ccc([N+](=O)[O-])c(C(F)(F)F)c2)C1=O [Nilutamide] | 94.2%
NCC(=O)CCC(=O)O [Aminolevulinic acid] | 103%

test system: HDQ-P1; test: as above; details: 1 nM; incubation time: 72 h
Outline: as §1

Compound | normalised viability
CC(=O)Nc1ccc(C(=O)Nc2ccccc2N)cc1 [CI-994] | 113%
Cc1ccc(C(=O)Nc2ccc(CN3CCN(C)CC3)c(C(F)(F)F)c2)cc1C#Cc1cnc2cccnn12 [Ponatinib] | 117%
CCN(CCCOc1ccc2c(Nc3cc(CC(=O)Nc4cccc(F)c4)[nH]n3)ncnc2c1)CCOP(=O)(O)O [Barasertib] | 111%
NC(=O)Nc1cc(-c2cccc(F)c2)sc1C(=O)N[C@H]1CCCNC1 [AZD 7762] | 115%

same assay, conditions: 10 nM; incubation time: 72 h

Compound | normalised viability
Oc1nc(-c2ccc(C(F)(F)F)cc2)nc2c1CSCC2 [XAV-939] | 104%
N.N.[Cl][Pt][Cl] [Cisplatin] | 130%
CN[C@@H]1C[C@H]2O[C@@](C)([C@@H]1OC)n1c3ccccc3c3c4c(c5c6ccccc6n2c5c31)C(=O)N[C@H]4O [UCN-01] | 72.9%
C[C@@H](Oc1cc(-c2cnn(C3CCNCC3)c2)cnc1N)c1c(Cl)ccc(F)c1Cl [Crizotinib] | 85%
CC1(C)NC(=O)N(c2ccc([N+](=O)[O-])c(C(F)(F)F)c2)C1=O [Nilutamide] | 149%
NCC(=O)CCC(=O)O [Aminolevulinic acid] | 100%
